The values that follow come from patent US6787566B2, “Breakers of advanced glycation endproducts” (City of Hope, priority 1999, dated 2004).

Test [1] concerns crosslinks formed in skin and tail collagen of diabetic rats. To be noted: cited from earlier work.
Test [2] has as its target T1, native and glycated β-amyloid (1-40) peptide fibrils (Homo sapiens, UniProt P05067).
T1 construct: β-amyloid (1-40) peptide was from Bachem (Torrance, Calif.); purchased Bachem (Torrance, Calif.)
Put plainly: Thioflavine T fluorescence assay of β-amyloid fibril disaggregation. The test is classed as biochemical. To be noted: ThT assay. The procedure:
Both dyes have been adapted to in vitro measurements of amyloid fibril formation and quantification. ThT binding to β-amyloids gives rise to a large fluorescence excitation spectral shift that allows selective excitation of the amyloid fibril bound ThT (Tjernberg et al., 1999). In the present study, we have investigated the disaggregation of both native (unmodified) and glycated β-amyloid (1-40) peptide by the AGE-breaker compounds introduced here. Stock solutions of peptide were dissolved in deionized water at a concentration of 1 mg/mL. For AGE crosslinking experiments, they were incubated in 4 mL polypropylene tubes at a concentration of 250 μg/mL (60 μM) and 50 mM glucose in 50 mM sodium phosphate buffer, pH 7.9, at 50° C. in the dark for 5 days. Sodium azide (0.01% w/v) was added to prevent microbiological growth. In long-term experiments, water was added every 12 hours to compensate for solvent evaporation. AGE-β-amyloid was then dialyzed against double-distilled water using Spectra/Por CE dialysis membrane (molecular mass cut off: 1000 Da), and then freeze dried. Two sets of experiments were prepared for each compound. Solutions for the first experiment contained 100 μM of β-amyloid in 50 mM Tris-buffered saline (TBS) pH 7.4, and […] (the drugs were dissolved in DMSO and the solutions were prepared for dilution from this DMSO stock). The second set contained 100 μM of β-amyloid in TBS and 100 μM of one compound. The reactions were incubated at 37° C. for 24 hours without stirring (stagnant assay). Control experiments were prepared accordingly except that no AGE-breaker compounds were added to the tubes. The same protocol was used for both native and glycated β-amyloid peptides. The incubated samples are vortexed and 40 μL aliquots are withdrawn and mixed with 960 μL of 10 μM ThT in 10 mM sodium phosphate-buffer. Fluorescence measurements were taken with excitation of 437 nm and emission at 485 nm. Slit widths are set to 5 nm.

For test [3], the target named is T2, cross-linked collagen-AGE-BSA (Rattus norvegicus, UniProt P02454+P02466).
T2 construct: purchased Biocoat (Collaborative Research, Bedford, Mass.) for the collagen-coated plates; Sigma Chemical co. for bovine serum albumin
T2 sequence (P02454 152-1207 limits assumed): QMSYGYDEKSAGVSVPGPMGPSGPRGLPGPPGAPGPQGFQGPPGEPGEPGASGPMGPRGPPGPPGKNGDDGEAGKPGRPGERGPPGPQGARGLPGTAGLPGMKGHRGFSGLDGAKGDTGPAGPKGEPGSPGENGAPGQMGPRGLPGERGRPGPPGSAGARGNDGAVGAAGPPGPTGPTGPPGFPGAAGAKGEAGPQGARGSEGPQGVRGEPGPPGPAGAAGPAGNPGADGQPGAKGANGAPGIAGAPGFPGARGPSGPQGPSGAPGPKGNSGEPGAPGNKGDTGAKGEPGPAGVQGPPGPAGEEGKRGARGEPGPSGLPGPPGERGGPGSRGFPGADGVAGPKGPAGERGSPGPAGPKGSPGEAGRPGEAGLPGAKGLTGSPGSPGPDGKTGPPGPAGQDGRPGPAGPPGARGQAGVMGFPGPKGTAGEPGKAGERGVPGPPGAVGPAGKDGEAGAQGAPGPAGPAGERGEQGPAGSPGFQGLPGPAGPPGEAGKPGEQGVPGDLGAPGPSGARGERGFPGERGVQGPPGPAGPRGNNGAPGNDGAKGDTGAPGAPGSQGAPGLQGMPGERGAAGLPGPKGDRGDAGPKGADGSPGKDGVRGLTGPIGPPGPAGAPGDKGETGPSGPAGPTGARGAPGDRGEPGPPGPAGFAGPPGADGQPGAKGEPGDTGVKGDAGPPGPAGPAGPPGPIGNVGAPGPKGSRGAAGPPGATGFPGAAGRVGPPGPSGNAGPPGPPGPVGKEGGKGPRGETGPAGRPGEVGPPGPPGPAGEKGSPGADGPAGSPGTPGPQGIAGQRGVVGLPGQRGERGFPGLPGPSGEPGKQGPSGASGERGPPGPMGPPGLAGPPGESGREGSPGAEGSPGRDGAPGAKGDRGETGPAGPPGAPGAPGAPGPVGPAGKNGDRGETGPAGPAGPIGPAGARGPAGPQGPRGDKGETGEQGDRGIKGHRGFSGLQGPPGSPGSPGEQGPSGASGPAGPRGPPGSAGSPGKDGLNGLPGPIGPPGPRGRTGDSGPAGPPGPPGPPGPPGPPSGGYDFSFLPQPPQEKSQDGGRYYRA
T2 sequence (P02466 86-1125 limits assumed): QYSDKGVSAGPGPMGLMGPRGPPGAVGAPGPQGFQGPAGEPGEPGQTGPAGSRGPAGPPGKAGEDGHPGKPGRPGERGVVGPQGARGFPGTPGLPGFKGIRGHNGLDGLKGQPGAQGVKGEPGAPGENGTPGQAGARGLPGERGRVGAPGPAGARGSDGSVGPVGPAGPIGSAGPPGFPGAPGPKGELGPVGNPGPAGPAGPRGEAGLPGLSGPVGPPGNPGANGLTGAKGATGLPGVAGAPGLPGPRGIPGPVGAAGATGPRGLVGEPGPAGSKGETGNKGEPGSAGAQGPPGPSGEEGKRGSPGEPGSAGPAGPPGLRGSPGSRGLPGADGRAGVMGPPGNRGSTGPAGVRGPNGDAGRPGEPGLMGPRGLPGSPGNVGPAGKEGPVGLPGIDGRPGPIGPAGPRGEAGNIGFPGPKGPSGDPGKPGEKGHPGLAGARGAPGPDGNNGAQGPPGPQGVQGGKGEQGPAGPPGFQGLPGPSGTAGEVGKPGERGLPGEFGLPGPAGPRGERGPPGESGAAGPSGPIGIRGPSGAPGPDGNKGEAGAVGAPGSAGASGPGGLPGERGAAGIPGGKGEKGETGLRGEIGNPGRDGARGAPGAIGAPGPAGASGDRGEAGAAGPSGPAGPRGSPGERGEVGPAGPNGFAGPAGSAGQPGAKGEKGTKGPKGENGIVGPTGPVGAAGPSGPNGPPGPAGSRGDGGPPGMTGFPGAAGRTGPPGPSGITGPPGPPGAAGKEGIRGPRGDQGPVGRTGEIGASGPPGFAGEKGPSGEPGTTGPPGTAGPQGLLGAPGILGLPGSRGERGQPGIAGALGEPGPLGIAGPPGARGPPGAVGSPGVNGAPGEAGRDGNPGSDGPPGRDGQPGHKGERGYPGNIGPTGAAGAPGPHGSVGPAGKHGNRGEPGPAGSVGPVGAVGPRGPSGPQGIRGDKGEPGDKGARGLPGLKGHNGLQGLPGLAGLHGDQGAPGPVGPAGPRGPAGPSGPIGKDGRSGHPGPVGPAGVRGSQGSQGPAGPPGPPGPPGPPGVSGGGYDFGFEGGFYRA
Put plainly: AGE-BSA-collagen ELISA: cleavage of glycated BSA cross-linked to collagen. Type of test: biochemical. Conditions: for AGE-breaking activity (cleavage of cross-linked collagen-AGE-BSA), in words: 0.1-10 mM final concentration, FIGS. 1A and 1C; for Concentration dependence of AGE-BSA-collagen crosslink breaking, in words: FIGS. 1A-C. As for the experimental part:
In vitro evaluation of the ability of the AGE-breaker compounds to cleave and break cross-linking of glycated BSA (AGE-BSA) (prepared as described (Rahbar et al., 1999)) to the rat-tail-tendon-collagen was by a special ELISA (Vasan et al., 1996). The rat-tail-tendon-collagen coated plates were first blocked first with 300 μL of Superblock blocking buffer (Pierce Chemicals, Rockford, Ill.) for one hour. The blocking solution was removed from the wells by washing the plates twice with PBS-0.05% Tween 20 (PBS-T) using a Dynatech ELISA-plate washer. Cross-linking of various concentrations of AGE-BSA (0, 0.01, 0.05, 0.1, 0.25, 0.50, and 1.0 μg per well) to rat-tail-collagen coated plates was performed without the testing compound, and the plates were incubated for 5 hours at 37° C. After washing the wells three times with PBS-T to remove the unattached AGE-BSA, test concentrations of the compound (50 μL/well) dissolved in PBS were added to wells in triplicate and incubation continued at 37° C. overnight. After washing with PBS-T, the amount of BSA remaining attached to the tail collagen plate was then quantified by addition of rabbit anti-BSA polyclonal antibodies (50 μL/well) for 1 hour at 37° C. The wells were then washed three times with PBS-T and developed with the chromogenic substrate ABTS (100 μL/well). Absorbance was measured at 410 nm in microplate reader (BioRad, Hercules, Calif.).
The percentage breaking activity is calculated by the following formula: 100×[(A410, PBS control)−(A410, AGE-breaker compound)]/[A410, PBS control].
For orientation: An ELISA detects its analyte on a solid surface through an enzyme-linked reagent.

Test [4] relates to IgG-AGE cross-linked to the rat RBC surface. Put plainly: Cleavage of IgG-AGE cross-linked to RBC surface, anti-IgG ELISA. The test is classed as cell-based. Conditions: RBCs of diabetic rats vs diabetic and non-diabetic controls; FIG. 6. The procedure: IgG cross-linked to the RBC surface was determined with an anti-IgG by a modification of the method described by Vasan et al. (1996). Briefly, heparinized blood was drawn from the tail vein in capillary tubes, inverted several times, then centrifuged at 200×g for five minutes at room temperature. RBCs were washed three times with PBS in 0.5 mL microfuge tubes and packed with a final centrifugation at 500×g. Red cells were diluted at 1:10 to 1:100 in Dulbecco's Modified Eagle's Medium that is normal for glucose. Experimental compounds were added at desired concentrations and incubated at 37° C. in a CO2 incubator for 24 hours in sterile conditions. Control incubations contained RBCs and PBS alone. After incubation, RBCs were washed three times in PBS and packed cells diluted 1:200 to 1:500. The RBC suspensions were gently vortexed and 50 μL aliquots added to 450 μL of a polyclonal rabbit anti-rat IgG conjugated to alkaline phosphatase (diluted 1:2500 in PBS). […] The RBCs were pelleted and the supernatant was read at […] in either a conventional spectrometer or an ELISA reader. Blank readings were obtained by incubating tubes without cells.

The target of a further test is T3, β-amyloid fibrils (Homo sapiens, UniProt P05067).
T3 construct: β-AP (amino acids 1-40, from Bachem, Torrance, Calif.)
T3 sequence (P05067 672-711): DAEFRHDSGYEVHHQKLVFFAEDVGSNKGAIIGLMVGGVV
To be noted: 20 mM; cited from earlier work.

T1 sequence (P05067 672-711): as above

Turning to `Cc1sc[n+](CC(=O)c2ccccc2)c1C.[Cl-]` [ALT711], the “Cleaving crosslinks formed in skin and tail collagen, in words” value in test [1] is recorded as “not effective”.

On to “methylene bis [LR90, methylene bis [4,4′-(2-chlorophenylureidophenoxyisobutyric acid)]]”, for which, in test [2], the “Disaggregation of fibrillar forms of native and glycated β-amyloid, in words” value is listed as “clearly confirmed the efficacy”. In test [3], the “AGE-breaking activity (cleavage of cross-linked collagen-AGE-BSA), in words” value was “very effective AGE-breakers” and the “Concentration dependence of AGE-BSA-collagen crosslink breaking, in words” value is reported as “more effective breakers at higher concentrations”.

Turning to “1,4-benzene-bis[4-methyleneaminophenoxyisobutyric acid] [LR102]”, the “IgG-AGE bound to RBC surface, in words” value in test [4] is recorded as “almost the same IgG-AGE content as that of non-diabetic control”. The “Disaggregation of fibrillar forms of native and glycated β-amyloid, in words” value in test [2] was “clearly confirmed the efficacy”. Further, in test [3], the “AGE-breaking activity (cleavage of cross-linked collagen-AGE-BSA), in words” value is on record as “very effective AGE-breakers” and the “Concentration dependence of AGE-BSA-collagen crosslink breaking, in words” value was “more potent at lower concentrations”. Further, the “Overall AGE-breaking property, in words” value in test [3] (overall judgement of the patent's tests) is on record as “most effective AGE-breakers”.

With `O=C(C[n+]1ccsc1)c1ccccc1.[Br-]` [PTB, N-phenacylthiazolium bromide], the “Disaggregation of β-amyloid fibrils, in words” value at β-amyloid fibrils is reported as “disaggregates β-amyloid fibrils”.
